Columns and labels:
Format in all cases: functional, cell-based
[1] = biological target: T1, Solute carrier organic anion transporter family member 1A1 (Rattus norvegicus, UniProt P46720); experiment: TP_TRANSPORTER: uptake of Tauro-23-norcholate at 20 u M in Oatp1-expressing HeLa cells; settings: human, 20 µM
T1 sequence (P46720 whole entry): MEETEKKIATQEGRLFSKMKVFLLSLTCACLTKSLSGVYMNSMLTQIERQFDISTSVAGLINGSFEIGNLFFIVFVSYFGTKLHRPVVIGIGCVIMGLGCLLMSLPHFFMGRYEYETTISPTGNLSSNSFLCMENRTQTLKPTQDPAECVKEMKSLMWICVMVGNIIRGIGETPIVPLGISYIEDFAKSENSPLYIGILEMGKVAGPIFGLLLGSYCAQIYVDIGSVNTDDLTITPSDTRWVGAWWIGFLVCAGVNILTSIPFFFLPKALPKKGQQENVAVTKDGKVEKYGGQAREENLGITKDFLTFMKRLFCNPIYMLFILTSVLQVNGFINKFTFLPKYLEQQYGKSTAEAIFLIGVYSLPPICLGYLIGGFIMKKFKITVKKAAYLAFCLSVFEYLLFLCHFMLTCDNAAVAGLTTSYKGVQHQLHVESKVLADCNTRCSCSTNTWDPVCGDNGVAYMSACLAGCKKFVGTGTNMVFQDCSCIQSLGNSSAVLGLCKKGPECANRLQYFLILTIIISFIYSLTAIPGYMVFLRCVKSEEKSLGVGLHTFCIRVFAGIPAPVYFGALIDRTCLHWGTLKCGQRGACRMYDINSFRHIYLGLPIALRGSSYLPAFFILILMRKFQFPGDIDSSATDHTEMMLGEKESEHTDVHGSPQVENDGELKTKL

[2] = biological target: T1, Solute carrier organic anion transporter family member 1A1; experiment: TP_TRANSPORTER: uptake of 23-Nor-cholate at 20 u M in Oatp1-expressing HeLa cells; settings: human, 20 µM
[3] = biological target: T1, Solute carrier organic anion transporter family member 1A1; experiment: TP_TRANSPORTER: uptake of Glyco-23-norcholate at 20 uM in Oatp1-expressing HeLa cells; settings: human
[4] = biological target: T1, Solute carrier organic anion transporter family member 1A1; experiment: TP_TRANSPORTER: uptake of Chenodeoxycholate at 20 uM in Oatp1-expressing HeLa cells; settings: human
[5] = biological target: T2, Hepatic sodium/bile acid cotransporter (Rattus norvegicus, UniProt P26435); experiment: TP_TRANSPORTER: uptake of Deoxycholate at a concentration of 1 u M in NTCP-expressing HeLa cells; settings: human, 1 µM
T2 sequence (P26435 whole entry): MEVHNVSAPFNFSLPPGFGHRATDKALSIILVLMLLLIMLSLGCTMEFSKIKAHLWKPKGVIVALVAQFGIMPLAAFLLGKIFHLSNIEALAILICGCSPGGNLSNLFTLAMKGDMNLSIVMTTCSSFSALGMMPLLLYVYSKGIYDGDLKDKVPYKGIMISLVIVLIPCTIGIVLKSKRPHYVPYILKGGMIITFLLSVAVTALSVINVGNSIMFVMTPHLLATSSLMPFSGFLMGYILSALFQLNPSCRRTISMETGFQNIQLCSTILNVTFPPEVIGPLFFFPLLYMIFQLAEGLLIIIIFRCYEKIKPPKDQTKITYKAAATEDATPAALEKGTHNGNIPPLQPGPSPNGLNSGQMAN

[6] = biological target: T1, Solute carrier organic anion transporter family member 1A1; experiment: TP_TRANSPORTER: uptake of Deoxycholate at 1 uM in Oatp1-expressing HeLa cells; settings: human
[7] = biological target: T1, Solute carrier organic anion transporter family member 1A1; experiment: TP_TRANSPORTER: uptake of Glycochenodeoxycholate at 20 uM in Oatp1-expressing HeLa cells; settings: human
[8] = biological target: T1, Solute carrier organic anion transporter family member 1A1; experiment: TP_TRANSPORTER: uptake of Glycocholate at 4 u M in Oatp1-expressing HeLa cells; settings: human, 4 µM
[9] = biological target: T1, Solute carrier organic anion transporter family member 1A1; experiment: TP_TRANSPORTER: uptake of Glycocholate at 20 u M in Oatp1-expressing HeLa cells; settings: human, 20 µM
[10] = biological target: T2, Hepatic sodium/bile acid cotransporter; experiment: TP_TRANSPORTER: uptake of Glycocholate at a concentration of 4 u M in NTCP-expressing HeLa cells; settings: human, 4 µM
[11] = biological target: T1, Solute carrier organic anion transporter family member 1A1; experiment: TP_TRANSPORTER: uptake of Glycotrihydroxycoprostanoic acid at 20 u M in Oatp1-expressing HeLa cells; settings: human, 20 µM
[12] = biological target: T1, Solute carrier organic anion transporter family member 1A1; experiment: TP_TRANSPORTER: uptake of Glycoursodeoxycholate at 20 u M in Oatp1-expressing HeLa cells; settings: human, 20 µM
[13] = biological target: T2, Hepatic sodium/bile acid cotransporter; experiment: TP_TRANSPORTER: uptake of Hyodeoxycholate at a concentration of 1 u M in NTCP-expressing HeLa cells; settings: human, 1 µM
[14] = biological target: T1, Solute carrier organic anion transporter family member 1A1; experiment: TP_TRANSPORTER: uptake of Lagodeoxycholate at 1 uM in Oatp1-expressing HeLa cells; settings: human
[15] = biological target: T2, Hepatic sodium/bile acid cotransporter; experiment: TP_TRANSPORTER: uptake of Lagodeoxycholate at a concentration of 1 u M in NTCP-expressing HeLa cells; settings: human, 1 µM
[16] = biological target: T2, Hepatic sodium/bile acid cotransporter; experiment: TP_TRANSPORTER: uptake of Muricholate at a concentration of 1 u M in NTCP-expressing HeLa cells; settings: human, 1 µM
[17] = biological target: T1, Solute carrier organic anion transporter family member 1A1; experiment: TP_TRANSPORTER: uptake of Muricholate at 1 u M in Oatp1-expressing HeLa cells; settings: human, 1 µM
[18] = biological target: T1, Solute carrier organic anion transporter family member 1A1; experiment: TP_TRANSPORTER: uptake of Bromosulfophthalein at 1 u M in Oatp1-expressing HeLa cells; settings: human, 1 µM
[19] = biological target: T1, Solute carrier organic anion transporter family member 1A1; experiment: TP_TRANSPORTER: uptake of Taurochenodeoxycholate at 20 u M in Oatp1-expressing HeLa cells; settings: human, 20 µM
[20] = biological target: T2, Hepatic sodium/bile acid cotransporter; experiment: TP_TRANSPORTER: uptake of Taurolagodeoxycholate at a concentration of 1 u M in NTCP-expressing HeLa cells; settings: human, 1 µM
[21] = biological target: T1, Solute carrier organic anion transporter family member 1A1; experiment: TP_TRANSPORTER: uptake of Taurolagodeoxycholate at 1 u M in Oatp1-expressing HeLa cells; settings: human, 1 µM
[22] = biological target: T2, Hepatic sodium/bile acid cotransporter; experiment: TP_TRANSPORTER: uptake of Tauromurocholate at a concentration of 1 u M in NTCP-expressing HeLa cells; settings: human, 1 µM
[23] = biological target: T1, Solute carrier organic anion transporter family member 1A1; experiment: TP_TRANSPORTER: uptake of Tauromurocholate at 1 u M in Oatp1-expressing HeLa cells; settings: human, 1 µM
[24] = biological target: T1, Solute carrier organic anion transporter family member 1A1; experiment: TP_TRANSPORTER: uptake of Taurotrihydroxycoprostanoic acid at 20 u M in Oatp1-expressing HeLa cells; settings: human, 20 µM
[25] = biological target: T1, Solute carrier organic anion transporter family member 1A1; experiment: TP_TRANSPORTER: uptake of Tauroursodeoxycholate at 20 u M in Oatp1-expressing HeLa cells; settings: human, 20 µM
[26] = biological target: T1, Solute carrier organic anion transporter family member 1A1; experiment: TP_TRANSPORTER: uptake of Trihydroxycoprostanoic acid at 20 uM in Oatp1-expressing HeLa cells; settings: human
[27] = biological target: T1, Solute carrier organic anion transporter family member 1A1; experiment: TP_TRANSPORTER: uptake of Ursodeoxycholate at 20 uM in Oatp1-expressing HeLa cells; settings: human

## C[C@H](CC(=O)NCCS(=O)(=O)O)[C@H]1CC[C@H]2[C@@H]3[C@H](O)C[C@@H]4C[C@H](O)CC[C@]4(C)[C@H]3C[C@H](O)[C@]12C
[1]
  Activity: substrate [+]

## C[C@H](CC(=O)O)[C@H]1CC[C@H]2[C@@H]3[C@H](O)C[C@@H]4C[C@H](O)CC[C@]4(C)[C@H]3C[C@H](O)[C@]12C
[2]
  Activity: substrate [+]

## C[C@H](CC(=O)NCC(=O)O)[C@H]1CC[C@H]2[C@@H]3[C@H](O)C[C@@H]4C[C@H](O)CC[C@]4(C)[C@H]3C[C@H](O)[C@]12C
[3]
  Activity: is not a substrate [-]

## C[C@H](CCC(=O)O)[C@H]1CC[C@H]2[C@@H]3[C@H](O)C[C@@H]4C[C@H](O)CC[C@]4(C)[C@H]3CC[C@]12C [CHENODIOL]
[4]
  Activity: is not a substrate [-]

## C[C@H](CCC(=O)O)[C@H]1CC[C@H]2[C@@H]3CC[C@@H]4C[C@H](O)CC[C@]4(C)[C@H]3C[C@H](O)[C@]12C [DEOXYCHOLIC ACID]
[5]
  Activity: is not a substrate [-]
[6]
  Activity: is not a substrate [-]

## C[C@H](CCC(=O)NCC(=O)O)[C@H]1CC[C@H]2[C@@H]3[C@H](O)C[C@@H]4C[C@H](O)CC[C@]4(C)[C@H]3CC[C@]12C [GLYCOCHENODEOXYCHOLATE]
[7]
  Activity: is not a substrate [-]

## C[C@H](CCC(=O)NCC(=O)O)[C@H]1CC[C@H]2[C@@H]3[C@H](O)C[C@@H]4C[C@H](O)CC[C@]4(C)[C@H]3C[C@H](O)[C@]12C [GLYCOCHOLIC ACID]
[8]
  Activity: substrate [+]
[9]
  Activity: substrate [+]
[10]
  Activity: substrate [+]

## CC(CC(=O)NCC(=O)O)[C@H]1CC[C@@H]2C1[C@@H](O)C[C@@H]1C3CC[C@@H](O)CC3C[C@@H](O)[C@H]12 (some centres not stated) [GLYCOTRIHYDROXYCOPROSTANOIC ACID]
[11]
  Activity: substrate [+]

## C[C@H](CCC(=O)NCC(=O)O)[C@H]1CC[C@H]2[C@@H]3[C@@H](O)C[C@@H]4C[C@H](O)CC[C@]4(C)[C@H]3CC[C@]12C [GLYCOURSODEOXYCHOLIC ACID]
[12]
  Activity: substrate [+]

## C[C@H](CCC(=O)O)[C@H]1CC[C@H]2[C@@H]3C[C@H](O)[C@@H]4C[C@H](O)CC[C@]4(C)[C@H]3CC[C@]12C [HYODEOXYCHOLIC_ACID]
[13]
  Activity: is not a substrate [-]

## C[C@H](CCC(=O)O)[C@H]1CC[C@H]2[C@@H]3CC[C@@H]4C[C@H](O)CC[C@]4(C)[C@H]3C[C@@H](O)[C@]12C [LAGODEOXYCHOLATE]
[14]
  Activity: is not a substrate [-]
[15]
  Activity: is not a substrate [-]

## C[C@H](CCC(=O)O)C1CC[C@H]2[C@@H]3C(O)C(O)C4C[C@H](O)CC[C@]4(C)[C@H]3CC[C@]12C (some centres not stated) [MURICHOLATE]
[16]
  Activity: substrate [+]
[17]
  Activity: substrate [+]

## O=C1OC(c2ccc(O)c(S(=O)(=O)[O-])c2)(c2ccc(O)c(S(=O)(=O)[O-])c2)c2c(Br)c(Br)c(Br)c(Br)c21.[Na+].[Na+] [SULFOBROMOPHTHALEIN SODIUM]
[18]
  Activity: substrate [+]

## C[C@H](CCC(=O)NCCS(=O)(=O)O)[C@H]1CC[C@H]2[C@@H]3[C@H](O)C[C@@H]4C[C@H](O)CC[C@]4(C)[C@H]3CC[C@]12C [TAUROCHENODEOXYCHOLATE]
[19]
  Activity: substrate [+]

## C[C@H](CCC(=O)NCCS(=O)(=O)O)[C@H]1CC[C@H]2[C@@H]3CC[C@H]4C[C@H](O)CC[C@]4(C)[C@H]3C[C@@H](O)[C@]12C [TAUROLAGODEOXYCHOLATE]
[20]
  Activity: substrate [+]
[21]
  Activity: substrate [+]

## C[C@H](CCC(=O)NCCS(=O)(=O)O)[C@H]1CC[C@H]2[C@@H]3C[C@@H](O)[C@@H]4C[C@H](O)CC[C@]4(C)[C@H]3CC[C@]12C [TAUROMUROCHOLATE]
[22]
  Activity: substrate [+]
[23]
  Activity: substrate [+]

## CC(CCC[C@@H](C)C1CC[C@H]2[C@@H]3[C@H](O)C[C@]4(C(=O)O)C[C@H](O)CC[C@]4(C)[C@H]3C[C@H](O)[C@]12C)C(=O)NCCS(=O)(=O)O (some centres not stated) [TAUROTRIHYDROXYCOPROSTANOIC ACID]
[24]
  Activity: substrate [+]

## C[C@H](CCC(=O)NCCS(=O)(=O)O)[C@H]1CC[C@H]2[C@@H]3[C@@H](O)C[C@@H]4C[C@H](O)CC[C@]4(C)[C@H]3CC[C@]12C [TAURURSODIOL]
[25]
  Activity: substrate [+]

## CC(C)CCC[C@@H](C)C1CC[C@H]2[C@@H]3[C@H](O)C[C@]4(C(=O)O)C[C@H](O)CC[C@]4(C)[C@H]3C[C@H](O)[C@]12C (some centres not stated) [TRIHYDROXYCOPROSTANOIC ACID]
[26]
  Activity: is not a substrate [-]

## C[C@H](CCC(=O)O)[C@H]1CC[C@H]2[C@@H]3[C@@H](O)C[C@@H]4C[C@H](O)CC[C@]4(C)[C@H]3CC[C@]12C [URSODIOL]
[27]
  Activity: is not a substrate [-]
